# Data taken from ChEMBL document CHEMBL1149578, “Design, synthesis, and discovery of stilbene derivatives based on lithospermic acid B as potent protein tyrosine phosphatase 1B inhibitors” (Bioorg Med Chem Lett, 2007).
# The source made the active and inactive calls. The calls are words filed in the database; no cut-off is given here.
# Target: T1, Tyrosine-protein phosphatase non-receptor type 1 (Homo sapiens) (UniProt P18031)
# T1 sequence (whole entry): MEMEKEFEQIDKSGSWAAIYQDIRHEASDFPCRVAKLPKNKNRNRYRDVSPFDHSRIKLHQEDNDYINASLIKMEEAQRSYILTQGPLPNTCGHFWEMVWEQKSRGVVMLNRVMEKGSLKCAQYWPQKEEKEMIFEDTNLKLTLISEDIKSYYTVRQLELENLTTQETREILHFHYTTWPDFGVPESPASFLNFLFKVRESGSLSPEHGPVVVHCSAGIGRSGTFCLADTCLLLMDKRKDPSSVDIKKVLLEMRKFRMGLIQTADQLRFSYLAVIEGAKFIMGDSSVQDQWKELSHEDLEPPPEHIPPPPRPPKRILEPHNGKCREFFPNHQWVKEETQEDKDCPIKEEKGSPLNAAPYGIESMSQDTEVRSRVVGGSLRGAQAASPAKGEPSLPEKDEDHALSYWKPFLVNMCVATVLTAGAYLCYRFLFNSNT
# Test: (§1) Inhibition of PTP1B by colorimetric assay
row,SMILES,Activity
1,COC(=O)C=Cc1ccc(/C=C\c2ccc(O)c(O)c2)cc1,inactive
2,O=[N+]([O-])c1ccc(/C=C/c2cccc(O)c2)c([N+](=O)[O-])c1,inactive
3,COc1ccc(/C=C/c2ccc(O)cc2)cc1OC,inactive
4,CCN(CC)C(=O)/C=C/c1ccc(O)c(O)c1,inactive
5,O=C(O)/C=C/c1ccc(O)c(O)c1,inactive
6,COC(=O)/C=C/c1ccc(/C=C/c2ccc(OC)c(OC)c2)cc1,inactive
7,C(=C/c1ccccc1)/c1ccccc1,inactive
8,O=C(NCC1CCCO1)c1ccc(/C=C\c2ccc(O)c(O)c2)cc1 (stereo unspecified),inactive
9,COc1cc(/C=C/C(=O)CC(=O)/C=C/c2ccc(O)c(OC)c2)ccc1O,inactive
10,O=C(/C=C/c1ccc(O)c(O)c1)Nc1ccccc1,inactive
11,COC(=O)c1ccc(/C=C/c2ccc(OC)c(OC)c2)cc1,inactive

# Target: T2, Tyrosine-protein phosphatase non-receptor type 1 (Homo sapiens, UniProt P18031)
# T2 sequence (P18031 whole entry): T1 sequence (whole entry)
# Test: as §1
row,SMILES,IC50 [µM]
1,OCc1ccc(/C=C\c2ccc(O)c(O)c2)cc1,138
2,CCCCCCCCCCCCCCCC(=O)C1=C(O)[C@@H](CO)OC1=O,45
3,COC(=O)/C=C/c1ccc(/C=C/c2ccc(O)c(O)c2)cc1,14.9
4,O=C(NCC1CCCO1)c1ccc(/C=C/c2ccc(O)c(O)c2)cc1 (stereo unspecified),35.4
5,O=[N+]([O-])c1ccc(/C=C/c2ccc(O)c(O)c2)c([N+](=O)[O-])c1,190
6,COC(=O)c1ccc(/C=C/c2ccc(O)c(O)c2)cc1,25.6
7,O=[N+]([O-])c1ccc(/C=C/c2cccc(O)c2O)c([N+](=O)[O-])c1,168
8,O=C(Nc1ccccc1)c1ccc(/C=C/c2ccc(O)c(O)c2)cc1,27.2
9,OCc1ccc(/C=C/c2ccc(O)c(O)c2)cc1,260
10,O=Cc1ccc(/C=C/c2ccc(O)c(O)c2)cc1,101
